Test results: patent US12396975B2, “Treatment of al amyloidosis with melflufen” (Oncopeptides AB, priority 2019, dated 2025)
Where two headings read alike, the source gives them in different places.

What was measured:
ALMC-2 cell line = experiment: Cell viability by CellTiter-Blue, ALMC-2; format: cell-based, human; details: 72 h
Description: (§1) Cellular toxicity was measured in response to either melflufen or melphalan in the amyloidosis patient-derived light chain secreting ALMC-1 and ALMC-2 cell lines, and the light chain secreting cell line JJN3.
(§2) Cells were plated in a 96-well format in the presence of the indicated compound in doses ranging from 0.014 to 10 mM for 72 hours at 37° C. Cell viability was determined by CellTiter-Blue™ using the manufacturer's standard protocol. Lambda and kappa light chain secretion was measured in the supernatant of cells by ELISA.
(§3) In more detail, for each cell line (JJN3, ALMC-1 and ALMC-2) cells were harvested, washed, re-suspended into full growth media and counted. The cells were seeded at the cell densities shown in Table 1, below, into the inner 60 wells of a 96-well assay plates (Corning, black-wall plates, Cat #3904) in 50 μl/well aliquots. The plates were incubated overnight at 37° C. in 5% humidified CO2. 10 mM stocks of melphalan or melflufen-HCl were used, and sub-aliquots were prepared from the 10 mM stocks of melphalan or melflufen-HCl by diluting the stock. […]
(§4) 50 microliters per well of compound/vehicle dilutions were added to the plates in replicates of 3 and incubated for 72 h at 37° C. in 5% humidified CO2. […] Fluorescence was measured using a VarioSkan Flash plate reader (570 nm excitation wavelength, 600 nm emission wavelength).

ALMC-1 cell line = experiment: Cell viability by CellTiter-Blue, ALMC-1; format: cell-based, human; details: 72 h
Description: as §1, §2, §3, §4

[1] = tested on: lambda light chain secretion in ALMC-1 cells; experiment: Human Lambda ELISA of light chain secretion, ALMC-1; format: cell-based; details: 72 h; for IC50: Homo sapiens, ALMC1, light chain secretion in supernatant
Description: as §2
(§5) In more detail, for each cell line (JJN3, ALMC-1 and ALMC-2) cells were harvested, washed, re-suspended into full growth media and counted. The cells were seeded at the cell densities shown in Table 1, below, into the inner 60 wells of a 96-well assay plates (Corning, black-wall plates, Cat #3904) in 50 μl/well aliquots. The plates were incubated overnight at 37° C. in 5% humidified CO2. 10 mM stocks of melphalan or melflufen-HCl were used, and sub-aliquots were prepared from the 10 mM stocks of melphalan or melflufen-HCl by diluting the stock. The diluted stock was added into cell culture media at the indicated concentrations for the experiment (0.014 to 10 mM).
(§6) For analysis of secreted proteins, 72 h after incubation, the cells were pelleted by centrifugation at 300 RCF, 4° C. for 5 min and the supernatant taken and used immediately for ELISA analysis using commercial ELISA kits (below) and the manufacturer's protocols: • Human Kappa ELISA (Bethyl Laboratories, #E80-115) • Human Lambda ELISA (Bethyl Laboratories, #E80-116)

[2] = tested on: plasma cells (CD138+ cells) within bone marrow mononuclear cell samples from AL amyloidosis patients; experiment: Multiplexed high throughput flow cytometry cytotoxicity assay on patient-derived bone marrow mononuclear cells; format: cell-based, human; details: for EC50: Homo sapiens; for Cytotoxicity compared to melphalan: in vitro AL amyloidosis cell model, identical concentrations; for Response of plasma cells (CD138+ cells) to treatment: 1 to 100,000 nM
Description: Viably frozen bone marrow mononuclear cells (MNC) from 11 amyloidosis patients were received from a biobank.
Viably frozen cells were thawed and incubated overnight to exclude apoptotic cells. On Day 1, a homogeneous cell suspension at a density of 2×10^6 cells/ml was prepared in RPMI 1640 medium (Lonza) supplemented with 10% fetal bovine serum, 2 mM L-glutamine, penicillin (100 U/ml), streptomycin (100 μg/ml) and 25% conditioned medium from the HS-5 human BM stromal cell line. Melflufen powders were stored in pre-weighted amounts in vials in oxygen and moisture free storage pods. Fresh 10 mM melflufen aliquots were prepared in DMSO. Serial dilutions were prepared in cell culture media and immediately transferred to 96 well plate containing mononuclear cells.
A multiplexed high throughput flow cytometer based assay (iQue® Screener PLUS) was applied, allowing simultaneous monitoring of drug responses in multiple hematopoietic cell subsets. A panel of eight antibodies against CD8, CD14, CD19, CD38, CD45, CD56, CD138 and CD269 were purchased. Annexin-V and 7-AAD were included to exclude dead or apoptotic cells from the analysis. Optimal antibody concentrations were determined and fluorescence compensations were computed to correct spectral overlaps between different fluorochromes. The plates containing melflufen treated cells were incubated in a humidified environment at 37° C. and 5% CO2. After 72 h, antibody cocktails were added to the wells and incubated for 30 min before the plates were read with the iQue® Screener PLUS instrument (Intellicyt®). The data was analyzed using ForeCyt software (Intellicyt). Graphpad Prism 7.0 to generate dose response graphs. Singlet mononuclear cells were subjected to dead and apoptotic cell exclusion using DNA staining dye 7-AAD and expression of Annexin-V surface antigens. Live cell counts for each cell populations were used to analyse effect of different doses on cell viability. Surviving cell fraction were computed by normalizing with viability of untreated cells for each cell subsets.
Melflufen was tested in six concentration over 100,000-fold dilutions (1 to 100,000 nM). Out of 12 cell samples tested, two samples were excluded due to poor viability. The viable samples were assigned the reference numbers AL-1886, AL-2983, AL-4839_2, AL-4839_3, AL-4847, AL-5691, AL-5716, AL-5807, AL-7219, AL-400081.

[3] = tested on: lambda light chain secretion in ALMC-2 cells; experiment: Human Lambda ELISA of light chain secretion, ALMC-2; format: cell-based; details: 72 h; for IC50: Homo sapiens, ALMC2, light chain secretion in supernatant
Description: as §2, §5, §6

[4] = tested on: MM.1S, RPMI-8826, U266 and ALMC-2 cells; experiment: Apoptosis and unfolded protein response (UPR) markers in malignant cell lines; format: cell-based, human; details: all cell lines tested; 6 h, 12 h or 24 h
Description: The toxic effects of melflufen and melphalan were compared in malignant cell lines, including RPMI-8826, ALMC-2, MM1S, and U266 to confirm enhanced toxicity of melflufen compared to melphalan. ALMC-2 cells are derived from an amyloidosis patient. MM.1S, RPMI-8826, U266 or ALMC-2 cells were incubated in the presence or absence of melflufen-HCl or melphalan at the indicated concentrations in FIG. 5A for 6 h, 12 h or 24 h. Cells were then harvested and apoptosis and cell death in response to melflufen and melphalan were measured by Annexin V/propidium iodide and live/dead cell staining by flow cytometry, as well as analysis of cleaved caspases 3, 8, and 9 and PARP by western blot. Effects of melflufen and melphalan on the UPR were examined by analysis of UPR associated molecules including phosphorylated eIF2a, ATF4, IRE1a and PERK by immunoblot analysis using commercially available detection reagents and standard protocols, and ATF4, ATF6, PERK, IRE1 and CHOP by real time qPCR with gene specific primer sets. In addition, XBP-1 splicing was evaluated by PCR analysis.

[5] = tested on: kappa light chain secretion in JJN3 cells; experiment: Human Kappa ELISA of light chain secretion, JJN3; format: cell-based; details: 72 h
Description: as §2, §5, §6

JJN3 cell line = experiment: Cell viability by CellTiter-Blue, JJN3; format: cell-based, human; details: 72 h; for IC50: Homo sapiens, JJN-3, cell viability, CellTiter-Blue, doses 0.014 to 10 mM
Description: as §1, §2, §5
50 microliters per well of compound/vehicle dilutions were added to the plates in replicates of 3 and incubated for 72 h at 37° C. in 5% humidified CO2. To develop the plates after 72 h, 20 μl of CellTiter-Blue™ reagent was added to each test/blank well. The plates were incubated at 37° C., 5% humidified CO2 for 1.5/3 h. Fluorescence was measured using a VarioSkan Flash plate reader (570 nm excitation wavelength, 600 nm emission wavelength).

AL amyloidosis = details: cited from earlier work

CCOC(=O)[C@H](Cc1ccc(F)cc1)NC(=O)[C@@H](N)Cc1ccc(N(CCCl)CCCl)cc1.Cl [melflufen, L-Melphalanyl-4-fluoro-L-phenylalanine ethyl ester]
Sensitivity compared with melphalan (ALMC-2 cell line; ALMC-2): increased sensitivity
IC50 (ALMC-2 cell line; Homo sapiens, ALMC2, cell viability, CellTiter-Blue, doses 0.014 to 10 mM): 1200 nM
Sensitivity compared with melphalan (ALMC-1 cell line; ALMC-1): increased sensitivity
IC50 (ALMC-1 cell line; Homo sapiens, ALMC1, cell viability, CellTiter-Blue, doses 0.014 to 10 mM): 1600 nM
Inhibition of light chain secretion compared to melphalan ([1]; ALMC-1): superior inhibition
IC50 [1]: 200 nM
EC50 ([2]; 72 h, sample AL-2983, 72 h, read-out: EC50, survival of plasma cells (CD138+ cells)): 7 nM
EC50 ([2]; 72 h, sample AL-4847, 72 h, read-out: EC50, survival of plasma cells (CD138+ cells)): 32 nM
EC50 ([2]; 72 h, sample AL-5807, 72 h, read-out: EC50, survival of plasma cells (CD138+ cells)): 1 nM
EC50 ([2]; cell samples obtained from a population of AL amyloidosis patients, lowest value, read-out: EC50 values as low as, in vitro AL amyloidosis cell model): ≥ 1 nM
Cytotoxicity compared to melphalan [2]: at least 100 times
Cytotoxicity compared to melphalan ([2]; listed as Melflufen): 100 times
Cytotoxicity in in vitro AL amyloidosis cell model ([2]; plasma cells obtained from patients): highly cytotoxic
Response of plasma cells (CD138+ cells) to treatment ([2]; samples AL-1886, AL-4839_2, AL-4839_3, AL-5716 and AL-7219, 72 h): no notable response
Response of plasma cells (CD138+ cells) to treatment ([2]; samples AL-2983, AL-4847, AL-5691, AL-5807 and AL-400081, 72 h): displayed sensitivity
Inhibition of light chain secretion compared to melphalan ([3]; ALMC-2): superior inhibition
IC50 [3]: 450 nM
Sensitivity with regard to inducing apoptosis, XBP-1 splicing and markers of UPR and apoptosis, compared to melphalan [4]: significantly more sensitive to melflufen than melphalan
IC50 ([5]; Homo sapiens, JJN-3, light chain secretion in supernatant): 2900 nM
Inhibition of light chain secretion compared to melphalan ([5]; JJN3): superior inhibition
IC50 (JJN3 cell line): 1200 nM
Sensitivity compared with melphalan (JJN3 cell line; JJN3): increased sensitivity

N[C@@H](Cc1ccc(N(CCCl)CCCl)cc1)C(=O)O [melphalan, reference compound]
IC50 [1]: 2500 nM
Treatment-related toxicity and mortality (AL amyloidosis; high-dose melphalan (for example 200 mg/m^2) with autologous hematopoietic stem cell rescue): significant treatment-related toxicity and high treatment related mortality rates
Plasma cell levels and survival (AL amyloidosis; melphalan (for example 20-25 mg/m^2) in combination with prednisolone): reduce plasma cell levels and increase survival rates by a few months
IC50 [3]: 5100 nM
IC50 (JJN3 cell line): 5400 nM
